Experimental data: patent US11780833B2, “Emetine derivatives, prodrugs containing same, and methods of treating conditions using same” (HOWARD UNIVERSITY, priority 2011, dated 2023)
Values belong to the compound of their own block, whether it stands above or below them.

Key:
[1] = pH-responsiveness by HPLC: emetine released in aqueous phosphate buffer; format: physicochemical; details: 37° C.
Description: Relative rates of hydrolysis of the compounds listed in Table 5 below over a 48 hour period were evaluated using the percent emetine released from the acid catalyzed hydrolysis of compounds 1 to 6.
The compounds were incubated in aqueous phosphate buffer at pH 5.5, 6.5 and 7.4 at 37° C. over a 48 hour period. High performance liquid chromatography (HPLC) was employed to analyze the samples and quantify how much emetine was released. The compounds whose hydrolysis to emetine is shown in table 5 are all 100% stable at physiological pH 7.4 up to a 5 day exposure.

[2] = system: LNCaP cells; test: Cytotoxicity in LNCaP prostate cancer cell line; format: cell-based; details: Homo sapiens, 168 h, read-out: IC50 after 7 days
Description: (§1) Studies were carried out on three prostate cancer cell lines: LNCaP, PC3, and DU145. […] There was not a significant difference in cytotoxicity of emetine between days 3 and 7. […] This increase is most likely due to the release of emetine from the dithiocarbamate salt over the time period. Further drug release studies at pH 5 confirmed about 45% release of emetine from the dithiocarbamate salt after 3-day incubation at this acidic pH maintained at 37° C., whereas release of emetine from the dithiocarbamate salt was not observed at physiological pH (e.g., about 7.4).
(§2) Various compounds prepared according to Examples 1-5 were studied in LNCaP, PC3, and DU145 cells.

[3] = system: DU145 cells; test: cells; format: cell-based; details: Homo sapiens, DU-145, 168 h, read-out: IC50 after 7 days
Description: as §1, §2
(§3) Various compounds prepared according to Example 6 were studied in DU145 and PC3 cells. The IC50 was determined at 3, 5, and 7 days.

[4] = system: PC3 cells; test: cells; format: cell-based; details: Homo sapiens, PC-3, 168 h, read-out: IC50 after 7 days
Description: as §1, §2, §3

- % Emetine at pH 5.5 ([1]; pH 5.5, 0 hr): 0.0%
- % Emetine at pH 5.5 ([1]; pH 5.5, 24 hrs): 36.3%
- % Emetine at pH 5.5 ([1]; pH 5.5, 48 hrs): 54.10%
- % Emetine at pH 6.5 ([1]; pH 6.5, 0 hr): 0.0%
- % Emetine at pH 6.5 ([1]; pH 6.5, 24 hrs): 35.5%
- % Emetine at pH 7.4 to 8.0 over 72 hrs ([1]; pH 7.4 to 8.0, 0 hrs): 0.0%
- % Emetine at pH 7.4 to 8.0 over 72 hrs ([1]; pH 7.4 to 8.0, 24 hrs): 0.0%
- % Emetine at pH 7.4 to 8.0 over 72 hrs ([1]; pH 7.4 to 8.0, 48 hrs): 0.0%
Structure (SMILES): CCC1CN2CCc3cc(OC)c(OC)cc3C2CC1CC1c2cc(OC)c(OC)cc2CCN1C(=O)/C=C\C(=O)O (stereo not drawn) [Compound 2]

Structure (SMILES): CCC1CN2CCc3cc(OC)c(OC)cc3C2CC1CC1c2cc(OC)c(OC)cc2CCN1C(=O)/C=C(/C)C(=O)O (stereo not drawn) [Compound 3]
- % Emetine at pH 5.5 ([1]; pH 5.5, 0 hr): 0.0%
- % Emetine at pH 5.5 ([1]; pH 5.5, 24 hrs): 78.1%
- % Emetine at pH 5.5 ([1]; pH 5.5, 48 hrs): 93.4%
- % Emetine at pH 6.5 ([1]; pH 6.5, 0 hr): 0.0%
- % Emetine at pH 6.5 ([1]; pH 6.5, 24 hrs): 76.8%
- % Emetine at pH 6.5 ([1]; pH 6.5, 48 hrs): 82.7%
- % Emetine at pH 7.4 to 8.0 over 72 hrs ([1]; pH 7.4 to 8.0, 0 hrs): 0.0%
- % Emetine at pH 7.4 to 8.0 over 72 hrs ([1]; pH 7.4 to 8.0, 24 hrs): 0.0%
- % Emetine at pH 7.4 to 8.0 over 72 hrs ([1]; pH 7.4 to 8.0, 48 hrs): 0.0%

- % Emetine at pH 5.5 ([1]; pH 5.5, 0 hr): 0.0%
- % Emetine at pH 5.5 ([1]; pH 5.5, 24 hrs): 19.2%
- % Emetine at pH 5.5 ([1]; pH 5.5, 48 hrs): 27.1%
- % Emetine at pH 6.5 ([1]; pH 6.5, 0 hr): 0.0%
- % Emetine at pH 6.5 ([1]; pH 6.5, 24 hrs): 8.2%
- % Emetine at pH 6.5 ([1]; pH 6.5, 48 hrs): 17.1%
- % Emetine at pH 7.4 to 8.0 over 72 hrs ([1]; pH 7.4 to 8.0, 0 hrs): 0.0%
- % Emetine at pH 7.4 to 8.0 over 72 hrs ([1]; pH 7.4 to 8.0, 24 hrs): 0.0%
- % Emetine at pH 7.4 to 8.0 over 72 hrs ([1]; pH 7.4 to 8.0, 48 hrs): 0.0%
Structure (SMILES): CCC1CN2CCc3cc(OC)c(OC)cc3C2CC1CC1c2cc(OC)c(OC)cc2CCN1C(=O)/C=C\C(=O)O (stereo not drawn) [Compound 4]

Structure (SMILES): CCC1CN2CCc3cc(OC)c(OC)cc3C2CC1CC1c2cc(OC)c(OC)cc2CCN1C(=S)SCCC(N)=O (stereo not drawn) [Compound 4b]
- IC50 [2]: > 10 µM
- IC50 [3]: > 10 µM
- IC50 [4]: 6.56 ± 1.11 µM

Structure (SMILES): CCOC(=O)c1ccc(NC(=O)CSC(=S)N2CCc3cc(OC)c(OC)cc3C2CC2CC3c4cc(OC)c(OC)cc4CCN3CC2CC)cc1 (stereo not drawn) [Compound 4c]
- IC50 [2]: 1.66 ± 0.564 µM
- IC50 [3]: 2.47 ± 0.263 µM
- IC50 [4]: 2.71 ± 0.192 µM

Structure (SMILES): CCC1CN2CCc3cc(OC)c(OC)cc3C2CC1CC1c2cc(OC)c(OC)cc2CCN1C(=S)SCCN1C(=O)c2ccccc2C1=O (stereo not drawn) [Compound 4d]
- IC50 [3]: 3.05 ± 0.07 µM
- IC50 [4]: 2.77 ± 0.06 µM

Structure (SMILES): CCC1CN2CCc3cc(OC)c(OC)cc3C2CC1CC1c2cc(OC)c(OC)cc2CCN1C(=S)SCc1ccccc1 (stereo not drawn) [Compound 4f]
- IC50 [2]: 1.97 ± 0.088 µM
- IC50 [3]: 1.98 ± 0.213 µM
- IC50 [4]: 1.56 ± 0.29 µM

Structure (SMILES): CCC1CN2CCc3cc(OC)c(OC)cc3C2CC1CC1c2cc(OC)c(OC)cc2CCN1C(=S)SCC(=O)Nc1ccc(Br)cc1 (stereo not drawn) [Compound 4g]
- IC50 [2]: 1.7 ± 0.187 µM
- IC50 [3]: 2.79 ± 0.151 µM
- IC50 [4]: 2.77 ± 0.146 µM

Structure (SMILES): CCCCCCSC(=S)N1CCc2cc(OC)c(OC)cc2C1CC1CC2c3cc(OC)c(OC)cc3CCN2CC1CC (stereo not drawn) [Compound 4h]
- IC50 [2]: 1.61 ± 0.066 µM
- IC50 [3]: 2.3 ± 0.067 µM
- IC50 [4]: 3.03 ± 0.16 µM

Structure (SMILES): CCC1CN2CCc3cc(OC)c(OC)cc3C2CC1CC1c2cc(OC)c(OC)cc2CCN1C(=S)SCC(=O)c1ccc(Cl)cc1 (stereo not drawn) [Compound 4i]
- IC50 [3]: 2.45 ± 0.162 µM
- IC50 [4]: 2.69 ± 0.145 µM

Structure (SMILES): CCC1CN2CCc3cc(OC)c(OC)cc3C2CC1CC1c2cc(OC)c(OC)cc2CCN1C(=S)SCCCCC(=O)OC (stereo not drawn) [Compound 4l]
- IC50 [2]: 2.31 ± 0.174 µM
- IC50 [3]: 2.25 ± 0.084 µM
- IC50 [4]: 4.86 ± 0.153 µM

Structure (SMILES): CCC1CN2CCc3cc(OC)c(OC)cc3C2CC1CC1c2cc(OC)c(OC)cc2CCN1C(=O)OCc1ccccc1 (stereo not drawn) [Compound 5b]
- IC50 [2]: 2.16 ± 0.122 µM

Structure (SMILES): CCC1CN2CCc3cc(OC)c(OC)cc3C2CC1CC1c2cc(OC)c(OC)cc2CCN1C(=O)/C=C(/CC(=O)O)C(=O)O (stereo not drawn) [Compound 6]
- % Emetine at pH 5.5 ([1]; pH 5.5, 0 hr): 0.0%
- % Emetine at pH 5.5 ([1]; pH 5.5, 24 hrs): 33.9%
- % Emetine at pH 5.5 ([1]; pH 5.5, 48 hrs): 42.1%
- % Emetine at pH 6.5 ([1]; pH 6.5, 0 hr): 0.0%
- % Emetine at pH 6.5 ([1]; pH 6.5, 24 hrs): 13.4%
- % Emetine at pH 6.5 ([1]; pH 6.5, 48 hrs): 21.1%
- % Emetine at pH 7.4 to 8.0 over 72 hrs ([1]; pH 7.4 to 8.0, 0 hrs): 0.0%
- % Emetine at pH 7.4 to 8.0 over 72 hrs ([1]; pH 7.4 to 8.0, 24 hrs): 0.0%
- % Emetine at pH 7.4 to 8.0 over 72 hrs ([1]; pH 7.4 to 8.0, 48 hrs): 0.0%

Structure (SMILES): CCC1CN2CCc3cc(OC)c(OC)cc3C2CC1CC1c2cc(OC)c(OC)cc2CCN1S(=O)(=O)c1ccc(C)cc1 (stereo not drawn) [Compound 8a]
- IC50 [3]: 6.24 ± 0.098 µM

Structure (SMILES): CCC1CN2CCc3cc(OC)c(OC)cc3C2CC1CC1c2cc(OC)c(OC)cc2CCN1S(C)(=O)=O (stereo not drawn) [Compound 8b]
- IC50 [2]: 2.1 ± 0.284 µM
- IC50 [4]: 4.01 ± 0.868 µM

Structure (SMILES): CCC1CN2CCc3cc(OC)c(OC)cc3C2CC1CC1c2cc(OC)c(OC)cc2CCN1S(=O)(=O)c1ccc(F)cc1 (stereo not drawn) [Compound 8c]
- IC50 [3]: 8.038 ± 0.06 µM
- IC50 [4]: 4.58 ± 0.383 µM

Structure (SMILES): CCC1CN2CCc3cc(OC)c(OC)cc3C2CC1CC1c2cc(OC)c(OC)cc2CCN1S(=O)(=O)c1ccc(Cl)cc1 (stereo not drawn) [Compound 8d]
- IC50 [3]: 6.62 ± 0.167 µM
- IC50 [4]: 4.21 ± 0.435 µM

Structure (SMILES): CCC1CN2CCc3cc(OC)c(OC)cc3C2CC1CC1c2cc(OC)c(OC)cc2CCN1S(=O)(=O)c1ccccc1 (stereo not drawn) [Compound 8e]
- IC50 [2]: 2.26 ± 0.798 µM
- IC50 [3]: > 10 µM
- IC50 [4]: > 10 µM

Structure (SMILES): CCC1CN2CCc3cc(OC)c(OC)cc3C2CC1CC1c2cc(OC)c(OC)cc2CCN1S(=O)(=O)c1ccc(OC)cc1 (stereo not drawn) [Compound 8f]
- IC50 [4]: 6.08 ± 0.105 µM
